This is an account of results in PubChem BioAssay AID330 (DTP/NCI, 2004).

This assay has as its system P388 leukemia ip, CD2F1 mice, survival T/C. Briefly: NCI In Vivo Anticancer Drug Screen. Data for tumor model P388 Leukemia (intraperitoneal) in CD2F1 (CDF1) mice. The conditions noted are these: endpoint: median survival time, higher = longer survival. In outline: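 Mice carrying the transplanted tumor received test compound or vehicle. Survival was recorded in each group, and the value is the treated-group measurement divided by that of the vehicle-treated control group.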

The mark [1] stands for this setting: dose: 50.0 mg/kg/injection, schedule: Q01DX005 (ip), vehicle: saline with Tween-80.
Where [2] appears, read: dose: 100.0 mg/kg/injection, schedule: Q01DX005 (ip), vehicle: saline with Tween-80.
The mark [3] stands for this setting: dose: 50.0 mg/kg/injection, schedule: Q01DX009 (ip), vehicle: saline with Tween-80.
The mark [4] stands for this setting: dose: 100.0 mg/kg/injection, schedule: Q01DX009 (ip), vehicle: saline.
[5] abbreviates: dose: 200.0 mg/kg/injection, schedule: Q01DX009 (ip), vehicle: saline.
Setting [6] is: dose: 50.0 mg/kg/injection, schedule: Q01DX009 (ip), vehicle: saline.
Where [7] appears, read: dose: 3.13 mg/kg/injection, schedule: Q04DX003 (ip), vehicle: water.
Where [8] appears, read: dose: 6.25 mg/kg/injection, schedule: Q04DX003 (ip), vehicle: water.
The mark [9] stands for this setting: dose: 25.0 mg/kg/injection, schedule: Q04DX003 (ip), vehicle: water.
The mark [10] stands for this setting: dose: 100.0 mg/kg/injection, schedule: Q04DX003 (ip), vehicle: water.

Values joined by “and” are separate entries in the source; they are usually repeats but may differ in a detail not shown here. Identical values can stand only once. Toxic doses and inconclusive results are not listed.

For `NC(N)=NS(=O)(=O)c1ccc(N=c2c3ccccc3n(Cc3ccccc3)c3ccccc23)cc1`, the T/C was 97 % of control under setting [1] and 98 % of control under setting [2].

As for `COC(/C=N/OC(=O)c1ccccc1)c1ccccc1` (stereo not drawn), the T/C was 98 % of control and 90 % of control (dose: 25.0 mg/kg/injection, schedule: Q04DX003 (ip), vehicle: saline with Tween-80); 92 % of control (dose: 50.0 mg/kg/injection, schedule: Q04DX003 (ip), vehicle: saline with Tween-80).

For the molecule `COc1ccc2[nH]cc(CCN(C)C)c2c1`, the T/C (dose: 12.5 mg/kg/injection, schedule: Q01DX009 (ip), vehicle: saline with Tween-80) is 115 % of control; the T/C (dose: 16.5 mg/kg/injection, schedule: Q01DX009 (ip), vehicle: saline with Tween-80) was 113 % of control; the T/C (dose: 25.0 mg/kg/injection, schedule: Q01DX009 (ip), vehicle: saline with Tween-80) is 104 % of control; the T/C (dose: 37.5 mg/kg/injection, schedule: Q01DX009 (ip), vehicle: saline with Tween-80) is 109 % of control; the T/C under setting [3] is 115 % of control.

`COc1cc(-c2ccc(N=Nc3cc(S(=O)(=O)O)c4ccccc4c3O)c(OC)c2)ccc1N=Nc1cc(S(=O)(=O)O)c2ccccc2c1O`: the T/C reads like this: under setting [4], 99 % of control; under setting [5], 104 % of control; (dose: 400.0 mg/kg/injection, schedule: Q01DX009 (ip), vehicle: saline) 115 % of control.

With `CC(C)C(N)C(=O)NC(C(=O)NS(=O)(=O)c1ccc(N)cc1)C(C)C` (stereo not drawn), the T/C is 99 % of control (dose: 50.0 mg/kg/injection, schedule: Q01DX005 (ip), vehicle: saline); 93 % of control (dose: 100.0 mg/kg/injection, schedule: Q01DX005 (ip), vehicle: saline); 98 % of control (dose: 200.0 mg/kg/injection, schedule: Q01DX005 (ip), vehicle: saline).

As to `CSc1nc(N)n2ncc(Br)c2n1`, the T/C (dose: 100.0 mg/kg/injection, schedule: Q04DX002 (ip), vehicle: saline with Tween-80) is 92 % of control.

With `COC(=O)/C=C/c1oc(=O)c(CO)c(OC)c1CO`, the T/C was 119 % of control (dose: 20.0 mg/kg/injection, schedule: Q01DX009 (ip), vehicle: Klucel (hydroxypropylcellulose) (HPC)); 119 % of control (dose: 40.0 mg/kg/injection, schedule: Q01DX009 (ip), vehicle: Klucel (hydroxypropylcellulose) (HPC)); 111 % of control (dose: 80.0 mg/kg/injection, schedule: Q01DX009 (ip), vehicle: Klucel (hydroxypropylcellulose) (HPC)).

For `Cc1ccc(S(=O)(=O)Nc2cc(S(=O)(=O)O)c(N)c3c2C(=O)c2ccccc2C3=O)cc1`, the T/C runs as follows: under setting [6], 86 % of control; under setting [4], 97 % of control; under setting [5], 101 % of control.

Regarding `COc1cccc2c1C(=O)c1c(O)c3c(c(O)c1C2=O)C[C@@](O)(/C(C)=N/NC(=O)c1cccc([N+](=O)[O-])c1)C[C@@H]3OC1CC(N)C(O)C(C)O1` (stereo partly drawn), the T/C reads like this: (dose: 0.5 mg/kg/injection, schedule: Q01DX009 (ip), vehicle: water) 152 % of control; (dose: 1.0 mg/kg/injection, schedule: Q01DX009 (ip), vehicle: water) 155 % of control; (dose: 1.0 mg/kg/injection, schedule: Q04DX003 (ip), vehicle: saline) 100 % of control and 112 % of control; (dose: 1.56 mg/kg/injection, schedule: Q04DX003 (ip), vehicle: water) 106 % of control; (dose: 2.0 mg/kg/injection, schedule: Q01DX009 (ip), vehicle: water) 172 % of control and 179 % of control; (dose: 2.0 mg/kg/injection, schedule: Q04DX003 (ip), vehicle: saline) 100 % of control and 115 % of control. For the same molecule, the T/C is, setting by setting: under setting [7], 112 % of control and 117 % of control; (dose: 4.0 mg/kg/injection, schedule: Q01DX009 (ip), vehicle: water) 190 % of control and 200 % of control; (dose: 4.0 mg/kg/injection, schedule: Q04DX003 (ip), vehicle: saline) 113 % of control and 122 % of control; (dose: 5.0 mg/kg/injection, schedule: Q01DX001 (ip), vehicle: water) 167 % of control; under setting [8], 114 % of control and 122 % of control; (dose: 8.0 mg/kg/injection, schedule: Q01DX009 (ip), vehicle: water) 123 % of control and 202 % of control. The T/C reads like this: (dose: 8.0 mg/kg/injection, schedule: Q04DX003 (ip), vehicle: saline) 112 % of control and 115 % of control and 95 % of control; (dose: 10.0 mg/kg/injection, schedule: Q01DX001 (ip), vehicle: water) 186 % of control; (dose: 16.0 mg/kg/injection, schedule: Q04DX003 (ip), vehicle: saline) 110 % of control and 115 % of control and 123 % of control; under setting [9], 168 % of control; (dose: 32.0 mg/kg/injection, schedule: Q04DX003 (ip), vehicle: saline) 118 % of control; (dose: 64.0 mg/kg/injection, schedule: Q04DX003 (ip), vehicle: saline) 174 % of control. In addition, the T/C under setting [10] was 114 % of control; the T/C (dose: 512.0 mg/kg/injection, schedule: Q04DX003 (ip), vehicle: saline) was 92 % of control; the T/C (dose: 1024.0 mg/kg/injection, schedule: Q04DX003 (ip), vehicle: saline) is 93 % of control; the T/C (dose: 2048.0 mg/kg/injection, schedule: Q04DX003 (ip), vehicle: saline) is 90 % of control.

Regarding `COCC(O)C(NC(=O)CCl)C(=O)O` (stereo not drawn), the T/C by setting is: under setting [6], 110 % of control and 97 % of control; under setting [4], 90 % of control and 98 % of control; under setting [5], 95 % of control.

As for `CCOC(=O)C(O)Cc1cnc2ccccc2n1` (stereo not drawn), the T/C is 108 % of control under setting [1]; 108 % of control under setting [2]; 100 % of control (dose: 200.0 mg/kg/injection, schedule: Q01DX005 (ip), vehicle: saline with Tween-80).

Take `CCn1c(=O)n(C)c(=O)c2[nH]c(Cl)nc21`: the T/C is, setting by setting: (dose: 16.0 mg/kg/injection, schedule: Q01DX009 (ip), vehicle: Klucel (hydroxypropylcellulose) (HPC)) 105 % of control; (dose: 25.0 mg/kg/injection, schedule: Q01DX009 (ip), vehicle: Klucel (hydroxypropylcellulose) (HPC)) 92 % of control; (dose: 32.0 mg/kg/injection, schedule: Q01DX009 (ip), vehicle: Klucel (hydroxypropylcellulose) (HPC)) 104 % of control; (dose: 50.0 mg/kg/injection, schedule: Q01DX009 (ip), vehicle: Klucel (hydroxypropylcellulose) (HPC)) 91 % of control; (dose: 64.0 mg/kg/injection, schedule: Q01DX009 (ip), vehicle: Klucel (hydroxypropylcellulose) (HPC)) 97 % of control; (dose: 100.0 mg/kg/injection, schedule: Q01DX009 (ip), vehicle: Klucel (hydroxypropylcellulose) (HPC)) 94 % of control.

Take `COc1cccc2c1C(=O)c1c(O)c3c(c(O)c1C2=O)CC(O)(C(C)=O)CC3OC1CC(NCC2(O)OCC(O)C2O)C(O)C(C)O1` (stereo not drawn): the T/C was 103 % of control under setting [7]; 100 % of control under setting [8]; 117 % of control (dose: 12.5 mg/kg/injection, schedule: Q04DX003 (ip), vehicle: water); 112 % of control and 113 % of control under setting [9]; 122 % of control (dose: 50.0 mg/kg/injection, schedule: Q04DX003 (ip), vehicle: water); 182 % of control under setting [10]. Further, the T/C (dose: 200.0 mg/kg/injection, schedule: Q04DX003 (ip), vehicle: water) was 108 % of control.

For `OC(Nc1ncccn1)C(Cl)(Cl)Cl` (stereo not drawn), the T/C by setting is: under setting [3], 104 % of control; (dose: 100.0 mg/kg/injection, schedule: Q01DX009 (ip), vehicle: saline with Tween-80) 100 % of control; (dose: 200.0 mg/kg/injection, schedule: Q01DX009 (ip), vehicle: saline with Tween-80) 100 % of control.

With `CCOP(=O)(Cc1cc(=O)oc2cc(OC)ccc12)OCC`, the T/C (dose: 100.0 mg/kg/injection, schedule: Q01DX001 (ip), vehicle: saline) was 101 % of control and the T/C (dose: 200.0 mg/kg/injection, schedule: Q01DX001 (ip), vehicle: saline) was 100 % of control.

As to `CN(C)Cc1ccc(C(C)(C)C)cc1Br`, the T/C was 97 % of control (dose: 12.5 mg/kg/injection, schedule: Q01DX009 (ip), vehicle: water); 95 % of control (dose: 25.0 mg/kg/injection, schedule: Q01DX009 (ip), vehicle: water); 99 % of control (dose: 50.0 mg/kg/injection, schedule: Q01DX009 (ip), vehicle: water); 95 % of control (dose: 100.0 mg/kg/injection, schedule: Q01DX009 (ip), vehicle: water); 89 % of control (dose: 200.0 mg/kg/injection, schedule: Q01DX009 (ip), vehicle: water).
